Test results published in patent US12024506B2, “Compounds” (Oxford University Innovation Limited, priority 2018, dated 2024).

Experiments:
[1] = biological target: T1, GST-human KRas166 (G12V) GPPNHP (Homo sapiens, UniProt P01116, G12V); assay: KRas small-molecule screening by SPR (Biacore T200); assay type: binding; details: compound 100 uM, 5% DMSO buffer; immobilised GST-KRas166 (G12V) GPPNHP
T1 construct: made in house; host or cells: E. coli C41(DE3)
In short: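 GST-KRas166 G12V loaded with GPPNHP, captured on anti-GST CM5 chip at 10,000–15,000 RU, GST reference channel. Compounds run at 100 uM in buffer with 100 mM NaCl, 5 mM MgCl2, 5% DMSO, with DMSO solvent correction; Rmax for 1:1 binding taken as 63 RU.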

[2] = test system: HT1080 cells; assay: Cell viability assay 2 (CellTiterGlo), HT1080 cells; assay type: cell-based; details: Homo sapiens, HT-1080, cell line printed as HCT1080, 48 or 72 h
Description: Cancer cell lines were in seeded in ViewPlates-96 microplates (PerkinElmer). HT1080 cells at 7500 cells per well and cultured in DMEM, high glucose, GlutaMAX media containing 10% FBS at 37° C. in 5% CO2 atmosphere. Cells were cultured overnight and the compounds (dissolved in DMSO and diluted to 0.2% DMSO) were added to the cells at concentrations ranging from 0 to 20 μM. The cells were incubated under standard culture conditions for either 24, 48 or 72 h. Cell viability was as quantitated using the CellTiterGlo Luminescent Cell Viability Assay (Promega) according to the manufacturer's instructions to measure ATP generated by metabolically active cells. Luminescent signals were measured using an Envision 2103 Multilabel Microplate Reader (PerkinElmer). The luminescence signals obtained from the compound-treated cells were normalized against the signal for DMSO-only treated cells.

[3] = test system: DLD1 cells (ATCC CCL-221); assay: Cell viability assay 1 (CellTiter-Glo), DLD1 cells; assay type: cell-based; details: Homo sapiens, DLD-1 cells, 48 h, second value of the cell, read-out: Cell Viability DLD-1 (concentration that decreases cell viability by 50%)
In short: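 DLD1 cells grown in RPMI-1640 with 10% FCS, 2 mM L-glutamine, 37 °C, 5% CO2, plated overnight then exposed to compound (0.5% DMSO) for 48 h. Viability by CellTiter-Glo luminescence; value is concentration reducing viability by 50% from dose-response curves.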

[4] = test system: H358 cells (ATCC CRL-5807); assay: Cell viability assay 1 (CellTiter-Glo), H358 cells; assay type: cell-based; details: Homo sapiens, NCI-H358, 48 h, first value of the cell, read-out: Cell Viability H358 (concentration that decreases cell viability by 50%)
In short: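 H358 cells were grown in RPMI-1640 with 10% FCS and 2 mM L-glutamine, plated at 5000 cells/well and allowed to adhere overnight. Compound was added in 0.5% DMSO final for 48 h at 37° C. Viability was read by CellTiter-Glo luminescence, with the 50% viability-reducing concentration derived from dose-response curves.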

IC50 [2] | SMILES | SPR Response Units [1] | IC50 [3] | IC50 [4]
10 µM | COc1nc(-c2cccc3c2OCCO3)ccc1Nc1ccc(CN(C)C)cc1 [compound 56, [6-(2,3-Dihydro-benzo[1,4]dioxin-5-yl)-2-methoxy-pyridin-3-yl]-(4-dimethylaminomethyl-phenyl)-amine] | 116 Response Units | 8 µM | 12 µM
– | COc1cc(-c2cccc3c2OCCO3)ccc1Nc1cccc(CN(C)C)c1.O=CO [compound 72, [4-(2,3-Dihydro-benzo[1,4]dioxin-5-yl)-2-methoxy-phenyl]-(3-dimethylaminomethyl-phenyl)-amine formate salt] | 56 Response Units | 15.4 µM | 15.3 µM
